The supplement of paper PMC13380429

Key:
Details in all cases: 72 h
HepG2 [1] = assay: drug sensitivity score (DSS) for viability; higher = more toxic; extreme values may be limits of the assay
Caco-2 [2] = assay: as above
Calu-3 [3] = assay: as above
Vero E6 [4] = assay: as above
U2OS [5] = assay: as above
HepG2 [6] = assay: relative viability EC50 (midpoint between 100% and the lowest measured viability); higher = less toxic
Caco-2 [7] = assay: as above
Calu-3 [8] = assay: as above
Vero E6 [9] = assay: as above
U2OS [10] = assay: as above
HepG2 [11] = assay: cell viability relative to DMSO; higher = less toxic
Caco-2 [12] = assay: as above
Calu-3 [13] = assay: as above
Vero E6 [14] = assay: as above
U2OS [15] = assay: as above

SMILES | drug sensitivity score (HepG2 [1]) | drug sensitivity score (Caco-2 [2]) | drug sensitivity score (Calu-3 [3]) | drug sensitivity score (Vero E6 [4]) | drug sensitivity score (U2OS [5]) | relative viability EC50 (HepG2 [6]) [µM] | relative viability EC50 (Caco-2 [7]) [µM] | relative viability EC50 (Calu-3 [8]) [µM] | relative viability EC50 (Vero E6 [9]) [µM] | relative viability EC50 (U2OS [10]) [µM] | cell viability (HepG2 [11]; 1 nM) [%] | cell viability (HepG2 [11]; 10 nM) [%] | cell viability (HepG2 [11]; 100 nM) [%] | cell viability (HepG2 [11]; 1000 nM) [%] | cell viability (HepG2 [11]; 10000 nM) [%] | cell viability (Caco-2 [12]; 1 nM) [%] | cell viability (Caco-2 [12]; 10 nM) [%] | cell viability (Caco-2 [12]; 100 nM) [%] | cell viability (Caco-2 [12]; 1000 nM) [%] | cell viability (Caco-2 [12]; 10000 nM) [%] | cell viability (Calu-3 [13]; 1 nM) [%] | cell viability (Calu-3 [13]; 10 nM) [%] | cell viability (Calu-3 [13]; 100 nM) [%] | cell viability (Calu-3 [13]; 1000 nM) [%] | cell viability (Calu-3 [13]; 10000 nM) [%] | cell viability (Vero E6 [14]; 1 nM) [%] | cell viability (Vero E6 [14]; 10 nM) [%] | cell viability (Vero E6 [14]; 100 nM) [%] | cell viability (Vero E6 [14]; 1000 nM) [%] | cell viability (Vero E6 [14]; 10000 nM) [%] | cell viability (U2OS [15]; 1 nM) [%] | cell viability (U2OS [15]; 10 nM) [%] | cell viability (U2OS [15]; 100 nM) [%] | cell viability (U2OS [15]; 1000 nM) [%] | cell viability (U2OS [15]; 10000 nM) [%]
[Cl][Ti][Cl].c1cc[cH-]c1.c1cc[cH-]c1 [titanocene-dichloride] | 0 | 0 | 0 | 0 | 0 | > 10 | > 10 | > 10 | > 10 | > 10 | 89.6 | 91.9 | 97.2 | 104 | 101 | 97.7 | 98.2 | 99.2 | 94.6 | 95.8 | 99.2 | 97.1 | 112 | 97.1 | 110 | 93.7 | 95.2 | 93.4 | 98.9 | 105 | 93.2 | 93.1 | 97.5 | 94.6 | 96.1
Cc1c(NC(=O)c2cccnc2)c(=O)n(-c2ccccc2)n1C [nifenazone] | 0 | 0 | 0 | 0 | 0 | > 10 | > 10 | > 10 | > 10 | > 10 | 105 | 91.9 | 109 | 94.4 | 90.6 | 110 | 98.7 | 93.2 | 97.1 | 89.4 | 106 | 106 | 92.3 | 100 | 106 | 105 | 101 | 99.3 | 101 | 97.2 | 98.3 | 104 | 102 | 105 | 101
c1ccc2nc(N3CCNCC3)ccc2c1 [quipazine] | 0 | 0 | 0 | 0 | 0 | > 10 | > 10 | > 10 | > 10 | > 10 | 93.7 | 97.8 | 99.7 | 93.5 | 101 | 99 | 98.9 | 93.1 | 95.3 | 106 | 102 | 101 | 109 | 96.1 | 99.3 | 90.8 | 96.3 | 92.1 | 96.7 | 101 | 100 | 97.4 | 102 | 100 | 100
O=C(Oc1cccc2cccnc12)c1ccccc1 [benzoxiquine] | 5.1 | 0 | 0 | 0 | 0 | 3.26 | > 10 | > 10 | > 10 | > 10 | 104 | 103 | 102 | 102 | 7 | 102 | 99.6 | 102 | 99.2 | 98.1 | 106 | 94.3 | 95.6 | 96 | 93.7 | 98.5 | 101 | 99.5 | 98.3 | 93.8 | 99.7 | 92.3 | 96.3 | 92.4 | 98.6
C=CCOc1ccccc1OCC(O)CNC(C)C (stereo not given) [oxprenolol] | 0 | 0 | 0 | 0 | 0 | > 10 | > 10 | > 10 | > 10 | > 10 | 97.4 | 97.8 | 93.3 | 113 | 107 | 102 | 91.5 | 98 | 91.2 | 97.9 | 111 | 90.8 | 108 | 93.2 | 103 | 98.6 | 104 | 102 | 106 | 98.6 | 106 | 97.7 | 99.8 | 101 | 102
CC(C)(C)C(=O)OCOC(=O)[C@@H]1N2C(=O)C[C@H]2S(=O)(=O)C1(C)C [sulbactam-pivoxil] | 0 | 0 | 0 | 0 | 0 | > 10 | > 10 | > 10 | > 10 | > 10 | 98.2 | 100 | 96.2 | 105 | 103 | 99.3 | 90.6 | 93.5 | 98.6 | 101 | 98.5 | 97.4 | 109 | 108 | 101 | 99.3 | 104 | 100 | 99.1 | 99.2 | 95.7 | 96.6 | 94.9 | 98.6 | 95.3
Cc1ccc(O)c([C@H](CCN(C(C)C)C(C)C)c2ccccc2)c1 [tolterodine] | 0 | 0 | 0.8 | 0 | 0 | > 10 | > 10 | > 10 | > 10 | > 10 | 115 | 98.5 | 102 | 105 | 92.7 | 102 | 89.6 | 98.5 | 85.9 | 108 | 99.7 | 94.1 | 88.6 | 88.6 | 95.8 | 105 | 99.8 | 102 | 103 | 96.9 | 99.9 | 94.4 | 99.9 | 98.7 | 96.1
O=C(/C=C/c1cccnc1)NCCCCC1CCN(C(=O)c2ccccc2)CC1 [FK-866] | 31.9 | 33.2 | 28.1 | 29.4 | 30.7 | 0.0092 | 0.0134 | 0.0392 | 0.0361 | 0.0303 | 84.6 | 57.9 | 16.6 | 11.3 | 11.7 | 93.7 | 65 | 5.8 | 5 | 5.6 | 110 | 112 | 7 | 5.1 | 4.6 | 106 | 106 | 2.7 | 1.2 | 1.9 | 97.8 | 98.1 | 0 | -0.5 | 0
C[C@]12Cc3c[nH]nc3C[C@@H]1CC[C@@H]1[C@@H]2CC[C@@]2(C)[C@H]1CC[C@]2(C)O [stanozolol] | 0 | 0 | 0 | 0 | 0 | > 10 | > 10 | > 10 | > 10 | > 10 | 103 | 98.5 | 101 | 104 | 94.1 | 101 | 95 | 104 | 107 | 91.4 | 95 | 100 | 103 | 94.1 | 107 | 101 | 109 | 102 | 106 | 95 | 98.5 | 101 | 96.9 | 96.3 | 97.3
Cc1cnc(Nc2ccc(OCCN3CCCC3)cc2)nc1Nc1cccc(S(=O)(=O)NC(C)(C)C)c1 [fedratinib] | 8 | 8.1 | 4.7 | 6.4 | 7.8 | 1.32 | 1.61 | 3.04 | 2.71 | 2.05 | 120 | 100 | 101 | 74.2 | 22.2 | 101 | 97.1 | 99.3 | 79.6 | 11.9 | 107 | 102 | 100 | 98.5 | 18.3 | 96 | 104 | 104 | 94.2 | 0.3 | 104 | 97.4 | 99.2 | 86.2 | 0.8
COC(=O)N[C@H](C(=O)N1CCC[C@H]1C(=O)Nc1ccc([C@@H]2CC[C@@H](c3ccc(NC(=O)[C@@H]4CCCN4C(=O)[C@@H](NC(=O)OC)C(C)C)cc3)N2c2ccc(C(C)(C)C)cc2)cc1)C(C)C [ombitasvir] | 0 | 0 | 0 | 0 | 0.3 | > 10 | > 10 | > 10 | > 10 | > 10 | 99.4 | 100 | 92.1 | 92.3 | 108 | 96 | 104 | 95.1 | 96.8 | 100 | 105 | 100 | 108 | 98.1 | 91.7 | 99.8 | 96.2 | 94.2 | 94.9 | 102 | 94.3 | 95.1 | 100 | 98 | 86.5
